Data set [1] has as its system protein kinase C. The following applies: in vitro and in vivo; cited from earlier work.
Data set [2] is described as follows: acute toxicity in animals when administered in organic solvents or in aqueous vehicles. Type of data set: in vivo. The following applies: similar doses, may include intravascular hemolysis and lung embolism. As to the method:
(§1) The presently recommended dose of safingol, administered in the formulation described by the present invention, is 120 mg per square meter body surface or about 200 mg for a typical adult patient. A sterile emulsion is first diluted to a convenient drug concentration (typically about 0.5 mg/ml) using 5% dextrose for injection. A standard chemotherapeutic agent, such as cisplatin or doxorubicin, is co-infused with safingol over approximately a one hour time period. This therapy may be safety repeated every 14 to 21 days. […] Such toxicity may include intravascular hemolysis and lung embolism.

A short description of data set [3]: acute toxicity on administration in the emulsion (infusion). The format is in vivo. The following applies: 120 mg per square meter, diluted to about 0.5 mg/ml in 5% dextrose, approximately one hour co-infusion with cisplatin or doxorubicin. As for the experimental part:
as §1

For data set [4] the following is noted: primary amine group of sphingosine; cited from earlier work.

Take `CCCCCCCCCCCCCCC[C@H](O)[C@@H](N)CO` [safingol, (2S,3S)-2-amino-1,3-octadecanediol]: the “inhibition of protein kinase C” value in data set [1] was “potent inhibitors of protein kinase C, both in vitro and in vivo”. In addition, in data set [2], the “acute toxicity, in organic solvents or in aqueous vehicles” value is on record as “unacceptable acute toxicity is observed”. For the same compound, the “acute toxicity, administered in the emulsion of the invention” value in data set [3] was “no acute toxicity”.
On to `CCCCCCCCCCCCC/C=C/[C@@H](O)[C@@H](N)CO` [Sphingosine, 4-sphingenine], for which, in data set [4], the pKa was ~ 6.5.
